From ChEMBL document CHEMBL1131481, “Novel 3-aralkyl-7-(amino-substituted)-1,2,3-triazolo[4,5-d]pyrimidines with high affinity toward A1 adenosine receptors” (J Med Chem, 1998)

Biological target: T1, Adenosine receptor A1 (Bos taurus, UniProt P28190)
T1 sequence (P28190 whole entry): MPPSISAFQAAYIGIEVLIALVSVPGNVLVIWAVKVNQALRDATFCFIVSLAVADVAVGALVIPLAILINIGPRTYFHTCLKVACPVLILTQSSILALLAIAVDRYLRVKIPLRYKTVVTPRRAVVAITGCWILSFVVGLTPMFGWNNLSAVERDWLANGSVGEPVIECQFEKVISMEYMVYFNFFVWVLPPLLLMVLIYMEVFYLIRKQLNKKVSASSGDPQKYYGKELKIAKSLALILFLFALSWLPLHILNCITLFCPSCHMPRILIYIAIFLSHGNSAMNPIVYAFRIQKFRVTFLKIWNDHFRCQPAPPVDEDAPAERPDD
Test: Compound was tested for binding affinity at Adenosine A1 receptor in bovine brain cortical membranes using [3H](R)-(-)-N6-(2-phenylisopropyl)adenosine (R-PIA) as radioligand
Type: cell membranes

Compound	Ki [nM]
Clc1ccccc1Cn1nnc2c(NC3CCCC3)ncnc21	21
c1ccc(Cn2nnc3c(NCC4CCCCC4)ncnc32)cc1	2790
Cc1cccc(Nc2ncnc3c2nnn3Cc2ccccc2)c1	1100
O=[N+]([O-])c1ccc(CNc2ncnc3c2nnn3Cc2ccccc2)cc1	> 10000
CC(Cc1ccccc1)Nc1ncnc2c1nnn2Cc1ccccc1Cl (centres undefined)	73
CC(Nc1ncnc2c1nnn2Cc1ccccc1Cl)c1ccccc1 (centres undefined)	468
C[C@H](Cc1ccccc1)Nc1ncnc2c1nnn2Cc1ccccc1Cl	39
Cc1ccc(Nc2ncnc3c2nnn3Cc2ccccc2)cc1	502
c1ccc(CCn2nnc3c(NC4CCCC4)ncnc32)cc1	176
Clc1ccccc1Cn1nnc2c(NC3CCCCC3)ncnc21	43
c1ccc(Cn2nnc3c(NC4CCCCC4)ncnc32)cc1	121
c1ccc(CCn2nnc3c(NC4CCCCC4)ncnc32)cc1	216
C[C@H](Cc1ccccc1)Nc1ncnc2c1nnn2Cc1ccccc1	274
Nc1ccc(CNc2ncnc3c2nnn3Cc2ccccc2Cl)cc1	> 10000
Cc1ccc(Nc2ncnc3c2nnn3Cc2ccccc2Cl)cc1	119
O=[N+]([O-])c1cccc(Nc2ncnc3c2nnn3Cc2ccccc2Cl)c1	3300
O=[N+]([O-])c1ccc(CNc2ncnc3c2nnn3Cc2ccccc2Cl)cc1	> 10000
Cc1cccc(Nc2ncnc3c2nnn3CCc2ccccc2)c1	4380
Clc1ccccc1Cn1nnc2c(NCC3CCCCC3)ncnc21	4260
O=[N+]([O-])c1ccc(CCNc2ncnc3c2nnn3Cc2ccccc2)cc1	> 10000

Compound	Ki [nM]
Cc1ccc(Nc2ncnc3c2nnn3CCc2ccccc2)cc1	1670
CC(Cc1ccccc1)Nc1ncnc2c1nnn2CCc1ccccc1 (centres undefined)	2490
O=[N+]([O-])c1ccc(CCNc2ncnc3c2nnn3Cc2ccccc2Cl)cc1	> 10000
Clc1cccc(Nc2ncnc3c2nnn3Cc2ccccc2)c1	463
O=[N+]([O-])c1cccc(Nc2ncnc3c2nnn3CCc2ccccc2)c1	2250
Cc1cccc(Nc2ncnc3c2nnn3Cc2ccccc2Cl)c1	5880
CC1CCCC(Nc2ncnc3c2nnn3Cc2ccccc2Cl)C1 (centres undefined)	102
O=[N+]([O-])c1ccc(CNc2ncnc3c2nnn3CCc2ccccc2)cc1	245
CC(Nc1ncnc2c1nnn2Cc1ccccc1)c1ccccc1 (centres undefined)	438
c1ccc(Cn2nnc3c(NC4CCCC4)ncnc32)cc1	127
CC(Cc1ccccc1)Nc1ncnc2c1nnn2Cc1ccccc1 (centres undefined)	575
Clc1cccc(Nc2ncnc3c2nnn3Cc2ccccc2Cl)c1	1830
CC1CCCC(Nc2ncnc3c2nnn3Cc2ccccc2)C1 (centres undefined)	770
CC(Nc1ncnc2c1nnn2CCc1ccccc1)c1ccccc1 (centres undefined)	2200
Clc1ccccc1Cn1nnc2c(NNc3ccccc3)ncnc21	> 10000
Nc1ccc(CCNc2ncnc3c2nnn3Cc2ccccc2)cc1	1540
Clc1cccc(Nc2ncnc3c2nnn3CCc2ccccc2)c1	3320
Nc1ccc(CNc2ncnc3c2nnn3Cc2ccccc2)cc1	9500
O=[N+]([O-])c1cccc(Nc2ncnc3c2nnn3Cc2ccccc2)c1	443
